Where two headings read alike, the source gives them in different places. Marks after values point to notes of the source that are not given here.
Assays:
HCT116 tumor xenografts [1] = system: HCT116 tumor xenografts; parameters: method as in PMID 19223496, PMID 20124452; conditions: everolimus at 10–12 mg/kg, mice bearing HCT116 tumor xenografts; cited from earlier work
[2] = Simulation of everolimus plasma concentrations at 5 mg/kg (two-compartment model); parameters: species or system mice
Method: Plasma and tumor pharmacokinetic parameters were calculated by noncompartmental analysis with WinNonlin. Everolimus plasma data was fit to a two-compartment model with first-order absorption and simulations of plasma concentrations at a 5 mg/kg dose of everolimus were performed by SAAM II version 2.1 (The Epsilon Group, Charlottesville, VA/University of Washington).
Everolimus [nmol/g tissue] […]
Everolimus plasma (A) and tumor (B) pharmacokinetics were measured in nude mice bearing HT29 xenografts.
10 (●) mg/kg everolimus daily for 7 days prior to sample collection.
Data represents the average of 3 samples and the lines represent the data fits to a two-compartment model with first-order absorption. The parameter estimates from the fits to the 2.5 and 10 mg/kg data were then used to simulate the steady-state dosing of 5 mg/kg RAD001 (C).
Simulations were generated based on daily dosing. Additional details of the study can be found in the main text.
To simulate data at different concentrations between 2.5 and 10 mg/kg the following assumptions were made; (1) everolimus absorption and its’ elimination from the central compartment is constant across dose levels, and (2) the volume of the central compartment varies linearly between doses. We believe these assumptions are valid since the pharmacokinetics appeared to be linear between 2.5 and 10 mg/kg doses, and the model fits the measured data at 2.5 and 10 mg/kg doses well and agrees with pharmacokinetic parameters estimated by non-compartmental analysis (Table S1). […]

HT29 tumor xenografts = experiment: Therapeutic study and tumor growth modeling, HT29 tumor xenografts; type: in vivo, mice
Method: (§1) For tumor bearing studies, cells were harvested and resuspended in a 1∶1 mixture of serum-free RPMI and Matrigel (BD Bioscience). One million cells were injected subcutaneously into each rear flank of mice. Tumor volumes, measured by digital calipers, were calculated by V (mm^3) = length x (width)^2 x 0.5236.
(§2) When HT29 and HCT116 tumors reached an average volume of ∼325 mm^3 animals were randomized into four treatment groups (n = 9–10 mice per group): (i) vehicles, (ii) 5 mg/kg everolimus (RAD) by oral gavage (PO) daily, (iii) 10 mg/kg irinotecan (IRI) once weekly by intravenous (iv) tail vein injection, and (iv) a combination of RAD and IRI. Everolimus, diluted in sterile water, and irinotecan, diluted in sterile 0.9% saline, were administered at 4 mL/kg. Animals were treated for 28 days. Tumor volumes and body weights were measured 2–3 times weekly. On day 28 of treatment 3–6 animals per group were sacrificed, approximately 24 hours following everolimus treatment, and tumors harvested for metabolomic analysis.
(§3) Data from the in vivo study was modeled to assess the therapeutic benefit of adding everolimus to irinotecan. The model used was similar to a previously published model for assessing combination therapy. Some modifications were made and details of the model can be found in Supplement S1 (section SA.3.) and Supplement S2. All modeling was performed on individual animal tumor volume data and modeled with SAAM II version 2.1. […]
(§4) are presented in Tables 1 and 2 in Supplement B. Individual fits of the model to the data can also be found in Supplement B. The average growth terms for each tumor type were then fixed at the average parameter value and used to determine the single agent effects (kx) of each compound by fitting the following equation: […] where cx(t) is the concentration of drug x with respect to time. Individual tumors were modeled and the average value of kx determined (Supplement B Tables 1 & 2) for each single agent treatment. This value was used to fit the following equation to the combination tumor growth data to determine the degree of interaction between the two drugs.
(§5) , the interaction term, was determined for each individual tumor for each tumor type and the data is presented in Table 2 in the main text and individual fits can be found in Supplement B.
(§6) We determined that values greater than 1.3 are synergistic, between 1.3 and 0.7 are additive, between 0.7 and 0 are less than additive, and negative values for are antagonistic. These ranges were selected based on the model fits. The CV% for the model fits ranged from 15 to 50 with an average CV% of approximately 30%. Therefore we assume an average variance of 30% making the additive range from 1.3 to 0.7 (1 + 30% and 1- 30%). […]

HCT116 cells = experiment: Sulforhodamine B (SRB) anti-proliferation assay, HCT116; type: cell-based
Method: Cytoxic effects were determined using the sulforhodamine B (SRB) assay. Briefly, 5000 viable cells were plated into 96-well plates and incubated overnight prior to exposure with different concentrations of drugs. Cells were exposed to increasing concentrations of everolimus (0–200 nM), SN38 (0–8 nM), and combinations of the two. Following a 72 hour incubation, media was removed and cells were fixed with cold 10% trichloroacetic acid for 30 minutes at 4° C. Cells were washed with water and stained with 0.4% SRB for 30 minutes at room temperature. Cells were washed again with 1% acetic acid and stain was solubilized with 10 mM tris at room temperature and read at an OD of 565 nm. […] The resulting Combination Index (CI) was used as a quantitative measure of the degree of interaction between different drugs. A CI value equal to 1 denotes additivity; CI greater than 1, antagonism; CI less than 1, synergism.

[3] = system: VEGF and bFGF stimulated endothelial cells (HUVECs); parameters: method as in PMID 19223496; conditions: read-out: IC50, anti-proliferative activity; cited from earlier work
[4] = everolimus, humans; cited from earlier work
[5] = everolimus, mice; cited from earlier work
[6] = Human, cited from earlier work
HCT116 tumor xenografts [7] = experiment: Therapeutic study and tumor growth modeling, HCT116 tumor xenografts; type: in vivo, mice
Method: as §1, §2, §3, §4, §5, §6

[8] = everolimus 5 mg/kg dose in mice
[9] = 10 mg daily oral, steady-state, ref 25

CO[C@H]1C[C@@H]2CC[C@@H](C)[C@@](O)(O2)C(=O)C(=O)N2CCCC[C@H]2C(=O)O[C@H]([C@H](C)C[C@@H]2CC[C@@H](OCCO)[C@H](OC)C2)CC(=O)[C@H](C)/C=C(\C)[C@@H](O)[C@@H](OC)C(=O)[C@H](C)C[C@H](C)/C=C/C=C/C=C/1C [Everolimus, 40-O-(2-hydroxyethyl)-rapamycin]
tumor growth inhibition, single agent (HCT116 tumor xenografts [1]): 45–55%
AUCss,free ([2]; 5 mg/kg in mice, from simulated data): 37 ng·h/mL
average free concentration (Css,avg) [2, 8]: about 1.5 nM
free plasma concentration, Cmax [2, 8]: 6 nM
free plasma concentration, Cmin [2, 8]: 0.2 nM
k2 (SD), single agent effect (HT29 tumor xenografts; HT29 (BRAF and PIK3CA mutant), RAD): 0.000263 (0.00015) mL/ng*day-1
average tumor growth inhibition, TGI (HT29 tumor xenografts; HT29 xenografts, 5 mg/kg everolimus PO daily, 10 mg/kg irinotecan iv once weekly, or combination, 28 days): 40%
%Growth Inhibition (HCT116 cells; HCT116, RAD (20 nM), SN38 (4 nM) or the combination of the two, Figure 2): 49%
IC50 (HCT116 cells; Homo sapiens, HCT-116, HCT116 cells): 25 nM
IC50 [3]: 0.1 to 0.8 nM
plasma protein binding [4]: 75%
plasma protein binding [5]: 99%
AUC0→t ([6]; 5 mg daily oral, ref 25): 238 ± 77 ng·h/mL
Cmin ([6]; 5 mg daily oral, ref 25): ^†5.4 ng/mL
AUC0→t ([6]; 5 mg daily oral, ref 26): 543 ± 189 ng·h/mL
Cmin ([6]; 5 mg daily oral, steady-state, estimated from graph in reference): ∼12–14^bd ng/mL
Cmax ([6]; 5 mg daily oral, steady-state): 32±9 ^b ng/mL
AUC0→t ([6]; 10 mg daily oral, ref 25): 514 ± 231 ng·h/mL
AUC0→t ([6]; 10 mg daily oral, ref 26): 711 ± 113 ng·h/mL
Cmin ([6]; 10 mg daily oral, steady-state, estimated from graph in reference): ∼20^bd ng/mL
Cmax [6, 9]: 61±17 ^b ng/mL
Cmin [6, 9]: 13.3 ^b ng/mL
Cmax ([6]; 10 mg daily oral, steady-state, ref 26): 66±1.4 ^b ng/mL
k2 (SD), single agent effect (HCT116 tumor xenografts [7]; HCT116 (KRAS and PIK3CA mutant), RAD): 0.000482 (0.00011) mL/ng*day-1
average tumor growth inhibition, TGI (HCT116 tumor xenografts [7]; HCT116 xenografts, 5 mg/kg everolimus PO daily, 10 mg/kg irinotecan iv once weekly, or combination, 28 days): 44%
